Like-named read-outs stand apart in the source and are kept apart here.
How the values were obtained:
CYP3A [1] = experiment: CYP450 inhibition assay, pooled human liver microsomes, testosterone substrate; details: at 10 μM; for inhibition at 10 min, 10 µM: both, human, pooled human liver microsomes, pH 7.4, probe testosterone, CYP 450 Inhibition CYP3A testosterone
Method: The compound was tested at a single concentration (10 μM) with 0.1% DMSO. […] The reaction was initiated by adding a NADPH-generating system. The reaction was allowed for 10 min and stopped by transferring the reaction mixture to acetonitrile/methanol. Samples were mixed and centrifuged. Supernatants were used for HPLC-MS/MS of the respective metabolite. The activity of human cytochrome P450 (CYP) enzymes were determined by following the formation of a metabolite of the probe substrate. The following enzymes were evaluated for inhibition using the listed reference substrates and reference inhibitors:
CYP1A—phenacetin (reference inhibitor furafylline), CYP2B6—bupropion (reference inhibitor clopidogre), CYP2C8-amodiaquine (reference inhibitor montelukast), CYP2C9—diclofenac (reference inhibitor sulfaphenazole), CYP2C19—omeprazole (reference inhibitor oxybutynin), CYP2D6—dextromethorphan (reference inhibitor quinidine), CYP3A—midazolam (reference inhibitor ketoconazol) and CYP3A—testosterone (reference inhibitor ketoconazol). The reference inhibitors were tested in each assay at multiple concentrations to obtain an IC50 value. Peak areas corresponding to the metabolite were recorded. The percent of control activity was calculated by comparing the peak area in the presence of the test compound to the control samples containing the same solvent. Subsequently, the percent inhibition was calculated by subtracting the percent control activity from 100. The IC50 value (concentration causing a half-maximal inhibition of the control value) was determined by non-linear regression analysis of the concentration-response curve using the Hill equation.

[2] = Stability in mouse liver microsomes; assay type: in vitro ADME; details: half-life
Method: (§1) Stability in liver microsomes. Human, mouse and rat liver microsomes were used to assess the metabolic stability for the compounds. Metabolic stability was determined in 0.5 mg/mL human, mouse or rat liver microsomes at a compound concentration of 1 μM in 100 mM potassium phosphate buffer (pH 7.4) in a total incubation volume of 500 μL by Eurofins. The assay matrix was: human liver microsomes: mixed gender and pool of 50, rat liver microsomes: male, Sprague-Dawley, pool of 100 or more and mouse liver microsomes: male,CD-1, pool of 250 or more. Final microsomal protein concentration: 0.1mg/mL. The test concentration was 0.1 μM with 0.01% DMSO, 0.25% acetonitrile and 0.25% methanol by default. […] The reaction was initiated by adding NADPH-generating system and was incubated for 0, 15, 30, 45, and 60 min. The reaction was stopped by transferring the incubation mixture to acetonitrile/methanol. Samples were then mixed and centrifuged. Four reference compounds were tested in each assay. Propranolol and imipramine are relatively stable, whereas verapamil and terfenadine are readily metabolized inhuman liver microsomes. Samples were analyzed by HPLC-MS/MS using selected reaction monitoring. The HPLC system consisted of a binary LC pump with autosampler, a C-18 column, and a gradient. Peak areas corresponding to the test compound were recorded. The compound remaining was calculated by comparing the peak area at each time point to time zero. The half-life was calculated from the slope of the initial linear range of the logarithmic curve of compound remaining (%) vs. time, assuming first order kinetics. In addition, the intrinsic clearance (Clint) was calculated.^19,20

CYP2D6 [3] = molecular target: T1, CYP2D6 (Homo sapiens, UniProt P10635); experiment: CYP450 inhibition assay, pooled human liver microsomes, dextromethorphan substrate; details: for inhibition at 10 min, 10 µM: both, human, pooled human liver microsomes, pH 7.4, probe dextromethorphan
T1 sequence (P10635 whole entry): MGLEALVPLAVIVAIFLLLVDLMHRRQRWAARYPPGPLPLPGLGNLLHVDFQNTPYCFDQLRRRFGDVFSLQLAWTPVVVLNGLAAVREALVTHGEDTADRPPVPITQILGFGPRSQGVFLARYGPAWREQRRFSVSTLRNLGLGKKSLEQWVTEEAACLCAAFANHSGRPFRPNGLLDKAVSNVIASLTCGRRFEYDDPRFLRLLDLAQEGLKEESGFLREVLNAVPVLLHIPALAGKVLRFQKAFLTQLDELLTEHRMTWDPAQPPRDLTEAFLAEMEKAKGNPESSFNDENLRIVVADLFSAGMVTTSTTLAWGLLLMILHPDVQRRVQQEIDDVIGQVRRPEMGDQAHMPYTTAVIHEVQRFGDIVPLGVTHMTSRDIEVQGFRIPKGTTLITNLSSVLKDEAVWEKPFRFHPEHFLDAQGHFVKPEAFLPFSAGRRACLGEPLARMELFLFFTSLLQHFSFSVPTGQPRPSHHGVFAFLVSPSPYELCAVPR

CYP1A = molecular target: T2, CYP1A (Homo sapiens, UniProt P05177); experiment: CYP450 inhibition assay, pooled human liver microsomes, phenacetin substrate; details: for inhibition at 10 min, 10 µM: both, human, pooled human liver microsomes, pH 7.4, probe phenacetin
T2 sequence (P05177 1-516): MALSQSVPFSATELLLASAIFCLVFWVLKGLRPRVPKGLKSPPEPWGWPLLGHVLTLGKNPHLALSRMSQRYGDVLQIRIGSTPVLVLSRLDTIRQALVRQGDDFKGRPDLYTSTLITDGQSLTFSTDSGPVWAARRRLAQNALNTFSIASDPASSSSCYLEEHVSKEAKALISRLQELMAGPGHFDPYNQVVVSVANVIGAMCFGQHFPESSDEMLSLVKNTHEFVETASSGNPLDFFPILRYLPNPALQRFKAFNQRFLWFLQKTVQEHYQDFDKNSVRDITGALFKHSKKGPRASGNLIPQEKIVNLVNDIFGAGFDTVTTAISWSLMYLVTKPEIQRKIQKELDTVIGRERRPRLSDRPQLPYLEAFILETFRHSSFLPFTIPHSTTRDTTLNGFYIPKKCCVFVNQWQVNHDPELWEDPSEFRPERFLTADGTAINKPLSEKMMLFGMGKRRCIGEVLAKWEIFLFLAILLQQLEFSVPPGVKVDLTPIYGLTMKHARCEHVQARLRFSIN

[4] = Stability in human liver microsomes; assay type: in vitro ADME; details: half-life
Method: as §1

[5] = Kinetic solubility in PBS pH 7.4; assay type: physicochemical; details: Dulbecco's PBS buffer, aqueous buffer, kinetic from dmso stock; PBS pH 7.4, 24 h room temperature, 2% DMSO
Method: Kinetic solubility. Dulbecco's PBS buffer was used (NaCl 137 mM, KCl 2.7 mM, Na2HPO4 8.1 mM, KH2PO4 1.5 mM with pH 7.4). The test compound is prepared at 200 μM in the PBS buffer from a 10 mM DMSO stock solution. The final DMSO concentration is 2%. The buffer samples were mixed thoroughly followed by incubation at room temperature for 24 h. At the end of the incubation, the buffer samples were centrifuged and supernatants were then injected for the HPLC analysis. A calibration standard of the test compound was prepared at 200 μM in methanol/water (3/2, v/v) from a 10 mM DMSO stock solution on the day of HPLC analysis. The analysis was conducted by HPLC-UV/VIS with photodiode array detection, with monitoring at 205, 230, 260, and 300 nm wavelengths. The HPLC system consisted of a C18 column using a gradient of A and B (A=12 mM ammonium formate, 6 mM formic acid in water, pH 4.0, B=6 mM ammonium formate, 3 mM formic acid acetonitrile/water (9/1, v/v)). Reference compounds used were metoprolol, rifampicin, ketoconazole, phenytoin, haloperidol, simvastatin, diethylstilbestrol, and tamoxifen, ranking from fully soluble (200 μM) to poorly soluble (<1μM). […] The range of the assay was approximately 0.5 μM to 200 μM. The chromatographic purity (%) was determined as the peak area of the principal peak relative to the total integrated peak areas in the HPLC chromatogram of the calibration standard.

CYP2C8 = molecular target: T3, CYP2C8 (Homo sapiens, UniProt P10632); experiment: CYP450 inhibition assay, pooled human liver microsomes, amodiaquine substrate; details: for inhibition at 10 min, 10 µM: both, human, pooled human liver microsomes, pH 7.4, probe amodiaquine
T3 sequence (P10632 1-490): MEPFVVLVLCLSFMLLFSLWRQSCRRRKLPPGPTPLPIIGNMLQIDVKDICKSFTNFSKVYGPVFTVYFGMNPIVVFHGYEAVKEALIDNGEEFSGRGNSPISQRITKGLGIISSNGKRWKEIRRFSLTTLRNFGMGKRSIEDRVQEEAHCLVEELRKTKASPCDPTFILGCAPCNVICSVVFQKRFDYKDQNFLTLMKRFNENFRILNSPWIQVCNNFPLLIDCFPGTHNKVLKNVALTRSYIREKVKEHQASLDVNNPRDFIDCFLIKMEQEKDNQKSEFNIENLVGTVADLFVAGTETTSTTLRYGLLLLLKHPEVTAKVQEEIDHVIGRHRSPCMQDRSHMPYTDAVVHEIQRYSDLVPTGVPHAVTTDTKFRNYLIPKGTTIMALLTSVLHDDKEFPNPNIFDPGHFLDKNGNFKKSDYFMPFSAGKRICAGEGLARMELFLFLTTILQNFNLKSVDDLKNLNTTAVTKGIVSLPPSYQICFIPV

CYP2B6 = molecular target: T4, CYP2B6 (Homo sapiens, UniProt P20813); experiment: CYP450 inhibition assay, pooled human liver microsomes, bupropion substrate; details: for inhibition at 10 min, 10 µM: both, human, pooled human liver microsomes, pH 7.4, probe bupropion
T4 sequence (P20813 1-491): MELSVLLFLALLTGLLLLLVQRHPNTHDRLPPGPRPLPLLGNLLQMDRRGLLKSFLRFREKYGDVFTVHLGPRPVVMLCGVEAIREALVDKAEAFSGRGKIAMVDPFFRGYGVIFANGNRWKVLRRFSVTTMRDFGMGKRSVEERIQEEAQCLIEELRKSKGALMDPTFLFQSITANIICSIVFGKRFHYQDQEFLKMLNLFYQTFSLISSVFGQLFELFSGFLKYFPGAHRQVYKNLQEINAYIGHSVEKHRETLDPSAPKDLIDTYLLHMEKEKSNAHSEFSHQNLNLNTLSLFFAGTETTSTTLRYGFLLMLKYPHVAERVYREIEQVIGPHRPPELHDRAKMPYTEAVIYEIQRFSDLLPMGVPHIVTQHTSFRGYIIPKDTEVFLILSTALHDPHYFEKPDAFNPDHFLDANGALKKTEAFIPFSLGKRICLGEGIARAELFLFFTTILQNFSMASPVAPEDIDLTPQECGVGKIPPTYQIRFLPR

CYP2C9 = CYP2C9 (Homo sapiens, UniProt P11712); experiment: CYP450 inhibition assay, pooled human liver microsomes, diclofenac substrate; details: both, human, pooled human liver microsomes, pH 7.4, probe diclofenac
Chain of CYP2C9 (P11712 whole entry): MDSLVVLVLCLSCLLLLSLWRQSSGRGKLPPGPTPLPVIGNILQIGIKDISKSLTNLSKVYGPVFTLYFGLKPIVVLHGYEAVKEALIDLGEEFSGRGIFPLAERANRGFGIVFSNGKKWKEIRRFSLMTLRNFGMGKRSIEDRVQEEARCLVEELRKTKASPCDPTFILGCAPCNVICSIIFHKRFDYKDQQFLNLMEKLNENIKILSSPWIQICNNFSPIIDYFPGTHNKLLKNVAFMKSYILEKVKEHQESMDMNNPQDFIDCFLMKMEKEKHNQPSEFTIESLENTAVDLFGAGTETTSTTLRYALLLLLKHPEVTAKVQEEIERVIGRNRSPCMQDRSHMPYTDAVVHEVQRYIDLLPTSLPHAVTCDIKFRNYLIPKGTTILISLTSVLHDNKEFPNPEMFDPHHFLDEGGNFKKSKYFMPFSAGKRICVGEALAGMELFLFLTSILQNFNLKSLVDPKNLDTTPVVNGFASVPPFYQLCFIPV

[6] = Stability in rat liver microsomes; assay type: in vitro ADME; details: half-life
Method: as §1

CYP2C19 [7] = molecular target: T5, CYP2C19 (Homo sapiens, UniProt P33261); experiment: CYP450 inhibition assay, pooled human liver microsomes, omeprazole substrate; details: both, human, pooled human liver microsomes, pH 7.4, probe omeprazole
T5 sequence (P33261 whole entry): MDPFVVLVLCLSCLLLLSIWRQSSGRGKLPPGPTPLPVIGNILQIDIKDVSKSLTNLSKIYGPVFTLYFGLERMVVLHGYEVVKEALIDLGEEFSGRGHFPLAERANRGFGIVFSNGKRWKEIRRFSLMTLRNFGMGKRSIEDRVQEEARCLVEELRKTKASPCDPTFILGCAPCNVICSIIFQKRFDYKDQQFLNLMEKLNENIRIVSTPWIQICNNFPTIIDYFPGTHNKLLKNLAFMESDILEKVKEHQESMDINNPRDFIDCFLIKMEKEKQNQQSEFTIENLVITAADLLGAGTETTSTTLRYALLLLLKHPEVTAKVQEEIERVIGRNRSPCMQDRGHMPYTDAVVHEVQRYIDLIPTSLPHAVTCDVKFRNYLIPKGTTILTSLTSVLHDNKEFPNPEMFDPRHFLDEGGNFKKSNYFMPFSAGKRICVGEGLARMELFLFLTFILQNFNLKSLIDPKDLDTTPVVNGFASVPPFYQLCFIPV

CYP3A [8] = experiment: CYP450 inhibition assay, pooled human liver microsomes, midazolam substrate; details: for inhibition at 10 min, 10 µM: both, human, pooled human liver microsomes, pH 7.4, probe midazolam
CYP2C19 [9] = molecular target: T5, CYP2C19; details: at 10 μM; from Bioorg. Med. Chem. 2010, 18 (12), 4570-4590; cited from earlier work
CYP2D6 [10] = molecular target: T1, CYP2D6; details: at 10 μM; from Bioorg. Med. Chem. 2010, 18 (12), 4570-4590; cited from earlier work
CYP3A [11] = details: at 10 μM; midazolam substrate; from Bioorg. Med. Chem. 2010, 18 (12), 4570-4590; cited from earlier work

Compound | inhibition at 10 min, 10 µM (CYP3A [1]) [%] | Stability in liver microsomes MLM [2] [min] | inhibition at 10 min, 10 µM (CYP2D6 [3]) [%] | inhibition at 10 min, 10 µM (CYP1A) [%] | Stability in liver microsomes HLM [4] [min] | solubility kinetic at 24 h [5] [µM] | inhibition at 10 min, 10 µM (CYP2C8) [%] | inhibition at 10 min, 10 µM (CYP2B6) [%] | inhibition at 10 min, 10 µM (CYP2C9) [%] | Stability in liver microsomes RLM [6] [min] | inhibition at 10 min, 10 µM (CYP2C19 [7]) [%] | inhibition at 10 min, 10 µM (CYP3A [8]) [%] | other results
CCCCOC(=O)[N-]S(=O)(=O)c1ccc(CC(C)C)cc1-c1ccc(Cn2ccnc2C(C)(C)O)cc1.[K+] [Example 7B, Potassium (butoxycarbonyl)((4′-((2-(2-hydroxypropan-2-yl)-1H-imidazol-1-yl)methyl)-5-isobutyl-[1,1′-biphenyl]-2-yl)sulfonyl)amide] | 3.1 | 20 | 16 | -50 | 28 | > 200 | 68 | 40 | 74 | 22 | 52 | -10.7 | 
CCCCOC(=O)[N-]S(=O)(=O)c1sc(CC(C)C)cc1-c1ccc(Cn2ccnc2)cc1.[Na+] [Example 13, Sodium ((3-(4-((1H-imidazol-1-yl)methyl)phenyl)-5-isobutylthiophen-2-yl)sulfonyl)(butoxycarbonyl)amide, reference compound] | 84 | 39 |  | 77 | 36 | 198 | 69 | 53 |  | 20 | 93 |  | CYP 450 Inhibition CYP3A testosterone (CYP3A [1]): 90%; CYP 450 Inhibition CYP2D6 (CYP2D6 [3]; at 10 μM): 90%; CYP 450 Inhibition CYP1A (CYP1A; at 10 μM): 89%; CYP 450 Inhibition CYP2C8 (CYP2C8; at 10 μM): 82%; CYP 450 Inhibition CYP2B6 (CYP2B6; at 10 μM): 63%; CYP 450 Inhibition CYP3A midazolam (CYP3A [8]; at 10 μM, midazolam substrate): 93%
CCCCOC(=O)[N-]S(=O)(=O)c1ccc(CC(C)C)cc1-c1ccc(Cn2ccnc2C(C)(C)C)cc1.[K+] [Example 2B, Potassium ((4′-((2-(tert-butyl)-1H-imidazol-1-yl)methyl)-5-isobutyl-[1,1′-biphenyl]-2-yl)sulfonyl)(butoxycarbonyl)amide] | 27 | 10 | 15 | 4.5 | 11 | 183 | 81 | 57 | 91 | 8 | 71 | 16 | 
CCCCOC(=O)NS(=O)(=O)c1sc(CC(C)C)cc1-c1ccc(Cn2ccnc2)cc1 [Example C21, butyl ((3-(4-((1H-imidazol-1-yl)methyl)phenyl)-5-isobutylthiophen-2-yl)sulfonyl)carbamate] |  |  |  |  |  |  |  |  |  |  |  |  | CYP 450 Inhibition CYP2C19 (CYP2C19 [9]): 67%; CYP 450 Inhibition CYP2D6 (CYP2D6 [10]): 41%; CYP 450 Inhibition CYP3A midazolam (CYP3A [11]): 82%
COC(=O)[N-]S(=O)(=O)c1sc(CC(C)C)cc1-c1ccc(Cn2ccnc2C(C)(C)C)cc1.[K+] [Example 12B, Potassium ((3-(4-((2-(tert-butyl)-1H-imidazol-1-yl)methyl)phenyl)-5-isobutylthiophen-2-yl)sulfonyl)(methoxycarbonyl)amide] | 6.8 | 39 | 1.6 | 8.3 | >60 | > 200 | 73 | 25 | 29 | >60 | 36 | -11.6 | 
